We go through five molecules from ChEMBL document CHEMBL4028801, “A multifactorial approach to hepatobiliary transporter assessment enables improved therapeutic compound development” (Toxicol Sci, 2013).

As a reminder, the IC50 is the point on the concentration scale where inhibition reaches its midpoint. The AUC is concentration integrated over time. Lower therefore signals low exposure.

The target in data set [1] is ATP-binding cassette sub-family C member 3 (Homo sapiens, UniProt O15438). Put plainly: Inhibition of human MRP3 overexpressed in Sf9 insect cell membrane vesicles assessed as uptake of [3H]-estradiol-17beta-D-glucuronide in presence of ATP and GSH measured after 10 mins by membrane vesicle transport assay. The class given is ADME, cell-based.
ATP-binding cassette sub-family C member 3, sequence (O15438 whole entry): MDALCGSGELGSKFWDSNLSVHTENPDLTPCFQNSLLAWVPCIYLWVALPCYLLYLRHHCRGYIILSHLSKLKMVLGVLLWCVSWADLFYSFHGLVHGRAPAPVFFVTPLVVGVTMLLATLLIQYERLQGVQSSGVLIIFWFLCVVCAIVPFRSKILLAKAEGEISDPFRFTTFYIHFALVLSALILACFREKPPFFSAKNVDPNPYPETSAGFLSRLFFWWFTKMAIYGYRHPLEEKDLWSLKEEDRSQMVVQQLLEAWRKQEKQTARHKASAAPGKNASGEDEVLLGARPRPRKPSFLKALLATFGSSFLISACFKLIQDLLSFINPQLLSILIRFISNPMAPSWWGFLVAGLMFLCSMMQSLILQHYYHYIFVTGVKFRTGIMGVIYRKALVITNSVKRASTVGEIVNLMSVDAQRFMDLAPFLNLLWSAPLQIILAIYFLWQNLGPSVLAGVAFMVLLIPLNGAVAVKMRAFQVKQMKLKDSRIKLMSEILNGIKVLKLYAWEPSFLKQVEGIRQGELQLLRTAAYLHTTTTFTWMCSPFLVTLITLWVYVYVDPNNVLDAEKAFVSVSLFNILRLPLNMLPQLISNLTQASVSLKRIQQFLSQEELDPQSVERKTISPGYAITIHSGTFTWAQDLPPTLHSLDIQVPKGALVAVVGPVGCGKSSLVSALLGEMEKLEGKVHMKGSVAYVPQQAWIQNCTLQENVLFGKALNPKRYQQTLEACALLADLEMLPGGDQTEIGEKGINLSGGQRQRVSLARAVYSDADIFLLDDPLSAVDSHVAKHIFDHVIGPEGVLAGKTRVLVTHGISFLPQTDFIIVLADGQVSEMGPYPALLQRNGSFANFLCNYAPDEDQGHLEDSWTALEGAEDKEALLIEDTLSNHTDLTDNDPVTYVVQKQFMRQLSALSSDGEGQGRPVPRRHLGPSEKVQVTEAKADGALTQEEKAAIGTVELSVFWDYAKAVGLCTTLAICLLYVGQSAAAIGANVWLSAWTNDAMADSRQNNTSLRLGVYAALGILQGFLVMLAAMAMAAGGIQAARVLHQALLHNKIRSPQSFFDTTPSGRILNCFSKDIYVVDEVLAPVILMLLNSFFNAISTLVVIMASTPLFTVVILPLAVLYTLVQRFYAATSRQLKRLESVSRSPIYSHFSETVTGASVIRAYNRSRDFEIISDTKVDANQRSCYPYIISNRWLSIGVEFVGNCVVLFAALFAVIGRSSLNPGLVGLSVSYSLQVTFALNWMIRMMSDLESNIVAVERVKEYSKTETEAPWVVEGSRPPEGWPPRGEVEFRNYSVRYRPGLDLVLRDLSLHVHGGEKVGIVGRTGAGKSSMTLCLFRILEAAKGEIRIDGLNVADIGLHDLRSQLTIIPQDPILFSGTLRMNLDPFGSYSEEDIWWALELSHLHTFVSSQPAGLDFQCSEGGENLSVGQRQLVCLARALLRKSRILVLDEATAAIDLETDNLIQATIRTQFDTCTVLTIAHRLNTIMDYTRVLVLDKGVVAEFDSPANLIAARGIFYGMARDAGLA
The subject of a further data set is Homo sapiens. Nature of the data set: Drug concentration at steady state in human at 62.5 to 125 mg, po BID after 12 hrs. Format: ADME, organism-based. The following applies: in vivo.
Data set [2] can be described thus: Ratio of drug concentration at steady state in human at 62.5 to 125 mg, po BID after 12 hrs to IC50 for human MRP4 overexpressed in Sf9 insect cells. The class given is ADME, organism-based. The note with it: in vivo.
For another data set, the target named is Bile salt export pump (Homo sapiens, UniProt O95342). Nature of the data set: Inhibition of human BSEP overexpressed in Sf9 cell membrane vesicles assessed as uptake of [3H]-taurocholate in presence of ATP measured after 15 to 20 mins by membrane vesicle transport assay. Format: ADME, cell-based.
Bile salt export pump, sequence (O95342 whole entry): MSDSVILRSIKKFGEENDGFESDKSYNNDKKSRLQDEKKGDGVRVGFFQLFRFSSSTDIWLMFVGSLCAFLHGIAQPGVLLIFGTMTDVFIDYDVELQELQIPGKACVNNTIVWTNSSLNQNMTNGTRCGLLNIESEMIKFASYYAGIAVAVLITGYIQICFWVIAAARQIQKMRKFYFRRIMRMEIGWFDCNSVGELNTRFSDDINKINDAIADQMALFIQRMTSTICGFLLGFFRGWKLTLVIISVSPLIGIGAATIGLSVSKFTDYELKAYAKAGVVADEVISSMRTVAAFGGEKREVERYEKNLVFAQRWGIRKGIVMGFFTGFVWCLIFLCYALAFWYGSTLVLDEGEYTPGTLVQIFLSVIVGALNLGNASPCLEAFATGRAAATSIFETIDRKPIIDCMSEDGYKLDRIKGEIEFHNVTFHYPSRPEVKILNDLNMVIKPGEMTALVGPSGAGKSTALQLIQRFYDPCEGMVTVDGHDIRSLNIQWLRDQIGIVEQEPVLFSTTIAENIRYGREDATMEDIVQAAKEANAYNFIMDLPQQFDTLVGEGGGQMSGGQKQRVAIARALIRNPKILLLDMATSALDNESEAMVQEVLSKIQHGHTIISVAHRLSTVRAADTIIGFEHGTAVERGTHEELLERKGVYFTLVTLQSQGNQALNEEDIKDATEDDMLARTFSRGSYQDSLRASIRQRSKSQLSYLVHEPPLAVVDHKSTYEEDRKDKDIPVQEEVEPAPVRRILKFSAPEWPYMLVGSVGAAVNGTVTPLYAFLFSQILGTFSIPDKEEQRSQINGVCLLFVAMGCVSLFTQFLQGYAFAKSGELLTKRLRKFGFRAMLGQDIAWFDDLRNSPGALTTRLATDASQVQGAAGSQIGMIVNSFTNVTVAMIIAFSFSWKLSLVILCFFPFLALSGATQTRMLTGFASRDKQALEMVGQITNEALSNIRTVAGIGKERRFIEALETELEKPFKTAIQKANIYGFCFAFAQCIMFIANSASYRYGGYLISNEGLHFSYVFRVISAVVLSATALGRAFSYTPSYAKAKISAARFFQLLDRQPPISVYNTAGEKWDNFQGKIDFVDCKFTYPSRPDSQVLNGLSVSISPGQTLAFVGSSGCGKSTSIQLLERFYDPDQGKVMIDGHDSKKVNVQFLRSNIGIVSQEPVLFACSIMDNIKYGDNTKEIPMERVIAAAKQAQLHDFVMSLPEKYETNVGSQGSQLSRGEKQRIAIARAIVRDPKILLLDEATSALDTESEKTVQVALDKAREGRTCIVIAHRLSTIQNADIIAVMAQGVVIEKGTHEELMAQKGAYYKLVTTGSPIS
Data set [3] can be described thus: Ratio of drug concentration at steady state in human at 62.5 to 125 mg, po BID after 12 hrs to IC50 for human BSEP overexpressed in Sf9 insect cells. The class given is ADME, organism-based. The note with it: in vivo.
Data set [4] in a line: AUC in human at 62.5 to 125 mg, po BID after 12 hrs. Format: ADME, organism-based. The following applies: in vivo.
In data set [5] the target is T1, ATP-binding cassette sub-family C member 4 (Homo sapiens, UniProt O15439).
T1 sequence (O15439 whole entry): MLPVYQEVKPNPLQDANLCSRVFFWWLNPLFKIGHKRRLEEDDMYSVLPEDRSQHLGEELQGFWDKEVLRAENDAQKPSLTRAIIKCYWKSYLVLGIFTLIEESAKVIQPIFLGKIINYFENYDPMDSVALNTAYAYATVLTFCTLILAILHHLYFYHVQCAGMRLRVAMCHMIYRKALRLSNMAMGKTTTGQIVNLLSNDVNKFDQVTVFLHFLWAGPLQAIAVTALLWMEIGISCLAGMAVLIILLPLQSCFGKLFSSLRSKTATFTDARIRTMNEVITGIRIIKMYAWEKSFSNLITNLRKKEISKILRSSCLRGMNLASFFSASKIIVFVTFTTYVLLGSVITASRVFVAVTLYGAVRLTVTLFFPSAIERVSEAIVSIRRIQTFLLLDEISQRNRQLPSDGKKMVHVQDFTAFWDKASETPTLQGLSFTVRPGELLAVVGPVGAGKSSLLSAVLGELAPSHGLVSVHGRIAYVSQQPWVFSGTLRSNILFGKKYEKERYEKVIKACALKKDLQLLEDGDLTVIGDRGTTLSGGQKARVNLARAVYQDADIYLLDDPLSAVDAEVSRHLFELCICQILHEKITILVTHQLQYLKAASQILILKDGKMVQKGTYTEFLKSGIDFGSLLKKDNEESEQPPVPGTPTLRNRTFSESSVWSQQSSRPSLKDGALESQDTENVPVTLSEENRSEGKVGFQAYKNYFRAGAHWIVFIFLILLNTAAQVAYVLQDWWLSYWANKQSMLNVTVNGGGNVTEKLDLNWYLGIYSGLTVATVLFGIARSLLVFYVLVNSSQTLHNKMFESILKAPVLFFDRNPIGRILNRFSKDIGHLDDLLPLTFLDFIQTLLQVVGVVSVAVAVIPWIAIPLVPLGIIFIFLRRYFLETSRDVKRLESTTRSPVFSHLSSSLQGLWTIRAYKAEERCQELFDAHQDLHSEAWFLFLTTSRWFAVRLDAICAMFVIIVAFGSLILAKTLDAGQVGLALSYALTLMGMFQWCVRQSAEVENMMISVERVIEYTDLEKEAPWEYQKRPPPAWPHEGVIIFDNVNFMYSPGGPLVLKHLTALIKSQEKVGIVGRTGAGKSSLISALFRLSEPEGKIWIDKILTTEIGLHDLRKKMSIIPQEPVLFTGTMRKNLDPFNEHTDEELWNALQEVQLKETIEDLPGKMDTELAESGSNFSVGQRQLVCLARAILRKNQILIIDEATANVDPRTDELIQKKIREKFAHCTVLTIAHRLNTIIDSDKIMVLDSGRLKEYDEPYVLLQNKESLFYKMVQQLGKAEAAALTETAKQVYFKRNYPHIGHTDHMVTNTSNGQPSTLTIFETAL
Put plainly: Inhibition of human MRP4 overexpressed in Sf9 cell membrane vesicles assessed as uptake of [3H]-estradiol-17beta-D-glucuronide in presence of ATP and GSH measured after 20 mins by membrane vesicle transport assay. The class given is ADME, cell-based.

Data set [6] is described as follows: Ratio of drug concentration at steady state in human at 62.5 to 125 mg, po BID after 12 hrs to IC50 for human MRP3 overexpressed in Sf9 insect cells. Format: ADME, organism-based. The note with it: in vivo.
In data set [7] the target is ATP-binding cassette sub-family C member 2 (Homo sapiens, UniProt Q92887). Put plainly: Inhibition of human MRP2 overexpressed in Sf9 cell membrane vesicles assessed as uptake of [3H]-estradiol-17beta-D-glucuronide in presence of ATP and GSH measured after 20 mins by membrane vesicle transport assay.
ATP-binding cassette sub-family C member 2, sequence (Q92887 whole entry): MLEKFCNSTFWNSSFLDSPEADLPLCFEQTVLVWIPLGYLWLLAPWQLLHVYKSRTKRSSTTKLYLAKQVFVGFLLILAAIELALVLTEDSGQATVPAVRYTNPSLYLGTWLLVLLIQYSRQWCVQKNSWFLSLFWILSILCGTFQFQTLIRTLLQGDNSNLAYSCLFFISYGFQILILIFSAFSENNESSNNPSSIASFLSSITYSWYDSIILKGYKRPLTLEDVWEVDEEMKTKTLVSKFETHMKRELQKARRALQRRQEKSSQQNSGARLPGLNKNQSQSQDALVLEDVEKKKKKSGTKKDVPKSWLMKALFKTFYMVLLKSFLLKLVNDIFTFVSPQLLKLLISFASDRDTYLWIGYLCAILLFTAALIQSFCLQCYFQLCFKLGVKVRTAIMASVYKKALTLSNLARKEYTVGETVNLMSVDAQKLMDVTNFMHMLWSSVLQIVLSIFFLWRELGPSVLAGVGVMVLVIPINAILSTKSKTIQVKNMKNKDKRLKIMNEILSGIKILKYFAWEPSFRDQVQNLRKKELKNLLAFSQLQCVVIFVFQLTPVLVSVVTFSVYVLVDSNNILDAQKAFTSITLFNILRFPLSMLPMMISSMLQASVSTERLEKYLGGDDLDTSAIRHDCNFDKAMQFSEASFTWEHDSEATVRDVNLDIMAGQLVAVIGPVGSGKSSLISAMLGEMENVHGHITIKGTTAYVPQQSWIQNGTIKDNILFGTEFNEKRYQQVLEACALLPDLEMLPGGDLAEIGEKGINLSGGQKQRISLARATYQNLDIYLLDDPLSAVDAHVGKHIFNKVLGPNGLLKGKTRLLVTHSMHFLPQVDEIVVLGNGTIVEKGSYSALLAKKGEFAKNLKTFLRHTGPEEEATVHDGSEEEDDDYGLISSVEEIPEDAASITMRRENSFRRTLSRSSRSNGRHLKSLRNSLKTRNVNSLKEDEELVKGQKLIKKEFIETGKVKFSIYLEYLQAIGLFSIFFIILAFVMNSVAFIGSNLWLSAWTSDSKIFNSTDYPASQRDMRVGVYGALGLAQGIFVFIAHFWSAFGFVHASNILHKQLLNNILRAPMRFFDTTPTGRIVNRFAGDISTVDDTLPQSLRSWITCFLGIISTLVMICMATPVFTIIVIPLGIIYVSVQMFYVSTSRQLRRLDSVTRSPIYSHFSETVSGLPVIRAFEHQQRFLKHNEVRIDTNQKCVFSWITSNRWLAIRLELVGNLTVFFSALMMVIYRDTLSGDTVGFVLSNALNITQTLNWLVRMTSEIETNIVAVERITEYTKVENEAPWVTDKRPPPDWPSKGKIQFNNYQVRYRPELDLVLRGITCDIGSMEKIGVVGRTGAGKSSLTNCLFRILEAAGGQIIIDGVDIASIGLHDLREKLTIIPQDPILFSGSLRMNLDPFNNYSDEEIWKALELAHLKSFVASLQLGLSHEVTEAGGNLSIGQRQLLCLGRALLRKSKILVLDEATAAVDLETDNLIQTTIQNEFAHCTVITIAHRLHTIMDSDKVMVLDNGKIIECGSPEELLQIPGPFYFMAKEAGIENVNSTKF
Data set [8] is described as follows: Ratio of drug concentration at steady state in human at 10 to 20 mg, po QID after 6 hrs to IC50 for human BSEP overexpressed in Sf9 insect cells. The class given is ADME, organism-based. The note with it: in vivo.
Data set [9] is described as follows: Drug concentration at steady state in human at 10 to 20 mg, po QID after 6 hrs. The class given is ADME, organism-based. The following applies: in vivo, read-out: Css.
Data set [10] is described as follows: AUC in human at 10 to 20 mg, po QID after 6 hrs. Format: ADME, organism-based. The note with it: in vivo.
A short description of data set [11]: Drug concentration at steady state in human at 20 to 25 mg/kg, po TID after 8 hrs. Format: ADME, organism-based. The note with it: in vivo, read-out: Css.
The nature of data set [12]: Ratio of drug concentration at steady state in human at 20 to 25 mg/kg, po TID after 8 hrs to IC50 for human BSEP overexpressed in Sf9 insect cells. Format: ADME, organism-based. The note with it: in vivo.
Data set [13] can be described thus: AUC in human at 20 to 25 mg/kg, po TID after 8 hrs. The class given is ADME, organism-based. The following applies: in vivo.
A short description of data set [14]: Ratio of drug concentration at steady state in human at 20 to 40 mg, po QD after 24 hrs to IC50 for human BSEP overexpressed in Sf9 insect cells. The class given is ADME, organism-based. The note with it: in vivo.
A short description of data set [15]: Ratio of drug concentration at steady state in human at 20 to 40 mg, po QD after 24 hrs to IC50 for human MRP3 overexpressed in Sf9 insect cells. The class given is ADME, organism-based. The following applies: in vivo.
Data set [16] is described as follows: Ratio of drug concentration at steady state in human at 20 to 40 mg, po QD after 24 hrs to IC50 for human MRP4 overexpressed in Sf9 insect cells. The note with it: in vivo. The class given is ADME, organism-based.
A short description of data set [17]: Drug concentration at steady state in human at 400 to 800 mg, po QD after 24 hrs. The class given is ADME, organism-based. The note with it: in vivo, read-out: Css.
A short description of data set [18]: AUC in human at 400 to 800 mg, po QD after 24 hrs. Format: ADME, organism-based. The note with it: in vivo.
Data set [19] can be described thus: Ratio of drug concentration at steady state in human at 400 to 800 mg, po QD after 24 hrs to IC50 for human BSEP overexpressed in Sf9 insect cells. The note with it: in vivo. The class given is ADME, organism-based.

SMILES strings stand for the structures.

On to `COc1ccccc1Oc1c(NS(=O)(=O)c2ccc(C(C)(C)C)cc2)nc(-c2ncccn2)nc1OCCO` [BOSENTAN], for which the figures for the IC50 (in data set [1]; on Bile salt export pump; in [5]) were 42 µM, 23 µM and 22 µM, respectively. The molecule further showed a Css in the data set with Homo sapiens of 1347 nM. For the same molecule, the Ratio in data set [2] is on record as 0.061; in [3] it was 0.059; in [6], 0.032. Besides, the area under the curve (AUC) at 12 h in data set [4] stood at 16.2 µM·h.

Consider `COc1cc(N)c(Cl)cc1C(=O)NC1CCN(CCCOc2ccc(F)cc2)CC1OC.O` (stereo not given) [CISAPRIDE MONOHYDRATE], for which the IC50 in data set [1] is more than 133 µM; in data set [7], more than 133 µM; on Bile salt export pump, 22 µM; in data set [5] it was more than 133 µM. Also, in [8], the Ratio was determined as 0.036. Also, the concentration at 6 h in data set [9] worked out at 797 nM. The molecule further came in with an AUC at 6 h in data set [10] of 4.78 µM·h.

`O=C(C1CCCCC1)N1CC(=O)N2CCc3ccccc3C2C1` (stereo not given) [PRAZIQUANTEL]: in [11], the concentration at 8 h came to 6300 nM. Also, the IC50 in data set [1] was more than 133 µM; in [7] it was more than 133 µM; on Bile salt export pump, 67.1 µM; in data set [5] it was more than 133 µM. The Ratio in data set [12] is reported as 0.094. In addition, in data set [13], the AUC at 8 h worked out at 50.4 µM·h.

For `CCCc1nc(C(C)(C)O)c(C(=O)OCc2oc(=O)oc2C)n1Cc1ccc(-c2ccccc2-c2nnn[nH]2)cc1` [OLMESARTAN MEDOXOMIL], the results for the IC50 (in [1]; at Bile salt export pump; in data set [5]) were 2 µM, 4.73 µM and 28.5 µM, respectively. Besides, the Ratio in data set [14] came to 0.081; in data set [15] it was 0.192; in data set [16], 0.014.

With `CC(=O)O[C@]1(C(C)=O)CC[C@H]2[C@@H]3C=C(C)C4=CC(=O)CC[C@]4(C)[C@H]3CC[C@@]21C` [MEGESTROL ACETATE], the IC50 was more than 133 µM in data set [1], more than 133 µM in [7], 17.8 µM at Bile salt export pump and more than 133 µM in [5]. Also, in data set [17], the concentration at 24 h was determined as 1490 nM. The molecule also gave an AUC at 24 h in [18] of 35.8 µM·h. For the same molecule, the Ratio in data set [19] is 0.084.
